Data on 21 compounds can be found in patent US11490856B2, “Method and a system for analyzing neuropharmacology of a drug” (City University of Hong Kong, priority 2018, dated 2022).

One series relates to zebrafish brain. Put plainly: HT-BAMing whole-brain activity mapping (T-score BAM) by calcium imaging of awake larvae. Format: in vivo. The note with it: for change in brain neural activity (T-score BAM pattern): 10 μM dose, 15-minute perfusion, five larvae per compound. The method, then: The transgenic zebrafish line elav13:GCaMP5G may be maintained in aquaria under standard laboratory conditions (at 28° C. under a cycle of 14 h light, 10 h dark). Larvae of 6-8 dpf were used in the HT-BAMing experiments.
For example, the imaging process may be performed on a fully automated inverted fluorescent microscope (Olympus IX81) equipped with a cooled sCMOS camera (Neo, ANDOR) with a 10× (NA, 0.4) objective. Micro-manager 1.4 may be installed to control the microscope. For high-resolution, confocal imaging and Leica SP8 microscope with a resonant scanner may be used.
Furthermore, a drug perfusion time may be set in which the two syringes may contain different fluid or solutions such that the changes induced by the drug may be recorded. With reference to FIGS. 8 and 9, to generate the functional BAM of a larva in response to a 15-minute period of chemical perfusion, or “treatment”, each larva was imaged over a 10-minute period before and after treatment.
In the experiments performed by the inventors, all drugs or compounds were dissolved in DMSO as a vehicle as ˜10 mM stock solutions. Treatment of the larvae was performed simply by switching the perfusion solution after immobilizing larvae in the microfluidic chip as shown in FIG. 8. Final concentrations of compounds tested in the primary screen were […].
In one example embodiment, the transformation module 106 is arrange to construct the brain activity maps 110 based on counting neural spikes representing changes of brain activity as detected on the images obtained. With reference to FIGS. 1 and 9, readings from multiple focal planes along the Z-axis (ventral direction) were acquired, and accumulated spike counts were derived from the calcium fluctuations of each Z-plane with a lateral resolution of 15.21 μm^2. The difference in spike-counts between the post- and pre-treatment periods was calculated and projected (by summing up along the Z-axis) to a two-dimensional surface to construct a BAM that reflects changes in brain activity and physiology of an individual larva in response to treatment.
With reference also to FIG. 10, a heat map may be used to intuitively display the activation level of the brain. To map brain activity, every collected frame from calcium imaging may be first meshed into small ROIs, each with a size of 15.21 μm^2. The time series of fluorescence signal in each ROI may then be filtered by a high pass filter to remove the interference from illumination fluctuations. The resulting trace may be used to calculate and visualize the spiking activities. For spike counting, a threshold may be applied to detect spikes from neural activity.
In the experiment, for each compound, the spike count data from five independent zebrafish larvae over a 10-minute period before and a 15-minute period after compound treatment. Before comparison across different samples, all the images were first resized and aligned to a uniform zebrafish brain template with the following process: for each raw image, the dark background was first removed to extract the fluorescent brain region, which was then mapped to the standard template via specific transformative adjustments (e.g. rotation, translation) using the brain center-line as a registration landmark and such that the symmetry with respect to the center-line was maximized in the resulted image. Lastly, the fish eye region was further removed by taking the regions within the template for downstream analysis.
A brain activity map (BAM) A=[aij] was then derived by taking the change (increase or decrease) of spike counts in each ROI before (t0) and after chemical treatment (t1), and summed across multiple layers along the Z-axis:
For each compound, BAMs from five individual larvae were acquired following treatment with a 10 μM dose.

The subject of another series is animal models. The note with it: previously reported; cited from earlier work.
The test system of series [1] is pentylenetetrazole (PTZ) induced zebrafish seizure model. The note with it: for seizure count over 15 minutes after PTZ: 5 mM PTZ after 4 hour pre-incubation with compound, n=12, vs DMSO control; for concentration at which seizures were reduced: 5 mM PTZ after 4 hour pre-incubation.
Description: In these experiments, with reference to FIG. 38, following a four-hour drug incubation period, zebrafish larvae were pre-monitored for normal movements/swimming behavior for 17 minutes. […] At the 17-minute mark, the larvae were treated with PTZ to a final concentration of 5 mM, and the number of seizures per larva and the average number of seizures at each concentration were quantified for 15 minutes following PTZ exposure.
(§1) The experimental protocol uses a 96-well plate, with one zebrafish larva (5 days post-fertilization) in 90 μL of fish water in each well. 10 μL of a 10× solution of compound in 10% DMSO was added to each well to achieve the final concentration shown in the data, and for a final concentration of 1% DMSO. […] The larvae were pre-treated with compound for four hours, followed by a two minute dark stimulation to ensure fish were not sedated, followed by a 15 minutes period of observation for deviation from the anticipated normal movement/swimming behavior. […] After a 15 minute observation period, the larvae were treated with PTZ to a final concentration of 5 mM, and the number of seizures per larva at each concentration quantified for 15 minutes following PTZ treatment. The DanioVision platform (Noldus) was used to perform the animal behavioral recoding and analysis.
Series [2] in a line: Solubility in water noted when preparing behavioral test concentrations. Format: physicochemical.
Description: as §1
For series [3], the system named is kainic-acid induced seizure model. The note with it: mice, shown previously; cited from earlier work.
For the next series, the system named is PTZ-larvae. Briefly: Calcium fluctuation traces and T-score BAM of PTZ-treated larval brains. Format: in vivo, zebrafish. The settings on record: 5 mM PTZ; 4 hour treatment at 10 μM. The source says: With reference to FIGS. 39C to 39E, Such pharmacological effects could also be observed in the diametrically opposed BAMS from zebrafish treated in the same manner. NNC-711 is thought to principally act through the inhibition of GABA uptake from the synaptic cleft and glia via inhibition of SLC6A1 (solute carrier family 6 member 1; (GAT1)) leading to increased GABA-ergic neurotransmission.

The subject of series [4] is rat models of induced epilepsy. The settings on record: literature; cited from earlier work.
The subject of the next series is dopamine levels. The note with it: mice, literature; cited from earlier work.

Structures are written as SMILES. Read-outs that look alike come from different tables or passages of the source.

Consider `Nc1nnc(-c2cccc(Cl)c2Cl)c(N)n1` [lamotrigine, Lamotrigine], for which the “change in brain neural activity (T-score BAM pattern)” value (from here on “change in brain neural activity”) in the series on zebrafish brain is “inhibition of activity across almost the entire brain”.

For `Oc1noc2c1CCNC2` [Gaboxadol], in the series with animal models, the “anti-epileptic activity in animal models” value was “anti-epileptic activity”.

`Cl.O=C(O)C1CCCN(CCC=C(c2ccccc2)c2ccccc2)C1` (centres unmarked) [SKF89976A, SKF 89976A]: the “anti-epileptic activity in animal models” value with animal models is “anti-epileptic activity”.

With `OCCCCC#Cc1cncc(OC[C@@H]2CCN2)c1` [Sazetidine], the “seizure count over 15 minutes after PTZ” value in series [1] is reported as “hit compounds”.

On to `NC(=O)N1c2ccccc2C=Cc2ccccc21` [carbamazepine, Carbamazepine], for which the “change in brain neural activity” value in the series on zebrafish brain was “inhibition of activity across almost the entire brain”.

`COc1ccc(CNC(=O)Nc2ncc([N+](=O)[O-])s2)cc1` [AR-A014418]: the solubility entry in series [2] (water / fish water, 1% DMSO) is recorded as “highly insoluble in water”.

Take `NC(=O)CCC/N=C(\c1ccc(Cl)cc1)c1cc(F)ccc1O` [progabide, Progabide]: the “change in brain neural activity” value with zebrafish brain is “inhibition of activity across almost the entire brain”.

In the case of `CC1=NN=C(c2ccc(N)cc2)c2cc3c(cc2C1)OCO3` [GYKI-52466], the figures for the “seizure count over 15 minutes after PTZ” value in series [1] and in series [1] (listed as GYKI 54266) were “confirmed” and “hit compounds”, respectively. For the same compound, the “anticonvulsant activity in kainic-acid induced seizure model” value in series [3] is “anticonvulsant activity”.

As to `N#Cc1ccccc1-c1cc(-c2ccccn2)cn(-c2ccccc2)c1=O` [perampanel, Perampanel], the “change in brain neural activity” value in the series with zebrafish brain is reported as “inhibition of activity across almost the entire brain”.

As for `NC(=O)N1c2ccccc2CC(=O)c2ccccc21` [oxcarbazepine], the “change in brain neural activity” value in the series with zebrafish brain is given as “inhibition of activity across almost the entire brain”.

Consider `CNC(=O)[C@@H](Cc1ccccc1)N(C)C(=O)[C@@H](Cc1ccc2ccccc2c1)N(C)C(=O)/C=C/CC(C)(C)N` [Tabimorelin], for which the “seizure count over 15 minutes after PTZ” value in series [1] is given as “hit compounds”.

Consider `OC(CNc1ccccc1)Cn1c2ccc(Br)cc2c2cc(Br)ccc21` (centres unmarked) [P7C3], for which, in series [2] (water / fish water, 1% DMSO), the solubility result is “highly insoluble in water”.

For `COc1cccc([C@H](O)C2CCN(CCc3ccc(F)cc3)CC2)c1OC` [volinanserin], the solubility result in series [2] is on record as “highly insoluble in water”. Further, the “seizure count over 15 minutes after PTZ” value in series [1] was “reduced seizures”; in series [1] (listed as Volinanerin) it was “hit compounds”.

On to `Cc1ncc(CSSCc2cnc(C)c(O)c2CO)c(CO)c1O` [Pyrithioxine], for which, in the series with zebrafish brain, the “change in brain neural activity” value is on record as “increased activity brain-wide”. Moreover, in the series on zebrafish brain (FIG. 9, after drug treatment), the “change of action potential firing rate in selected neuronal cells from a zebrafish brain” value is reported as “excitation”.

On to `CN1CCc2c(c3ccccc3n2Cc2ccc(C(=O)NO)cc2)C1` [Tubastatin A], for which the “concentration at which seizures were reduced” value in series [1] was 500 µM. Besides, the “seizure count over 15 minutes after PTZ” value in series [1] is “hit compounds”; in series [1] (listed as Tubastatin-A) it was “reduced seizure count”.

Turning to `CC[C@@H](C(N)=O)N1CCCC1=O` [levetiracetam, Levetiracetam], the “change in brain neural activity” value in the series with zebrafish brain is on record as “inhibition of activity across almost the entire brain”.

With `CCC1(C)CC(=O)NC1=O` (centres unmarked) [ethosuximide, Ethosuximide], the “change in brain neural activity” value with zebrafish brain is recorded as “inhibition of activity across almost the entire brain”.

On to `O=C(O)C1=CCCN(CCON=C(c2ccccc2)c2ccccc2)C1` [NNC-711, NNC 711], for which, in the series with PTZ-larvae, the “seizure activity in larval brain (calcium fluctuation, T-score BAM)” value is given as “reduction of seizure activity”. Moreover, the “concentration at which seizures were reduced” value in series [1] was 25 µM. In addition, in the series on animal models, the “anti-epileptic activity in animal models” value was “anti-epileptic activity”. Besides, the “anticonvulsant efficacy in rat models of induced epilepsy” value in series [4] was “anticonvulsant efficacy”.

Turning to `COc1ccc2cc3[n+](cc2c1OC)CCc1cc2c(cc1-3)OCO2` [berberine, Berberine], the “effect on dopamine levels” value in the series on dopamine levels is “increase dopamine levels”.

In the case of `COc1ccc(/C=C/c2cc(OC)cc(=O)o2)cc1` [Yangonin], the solubility result in series [2] is reported as “highly insoluble in water”. The “seizure count over 15 minutes after PTZ” value in series [1] was “hit compounds”.

As for `O=c1cc(-c2ccccc2)oc2c(O)c(O)ccc12` [7,8-dihydroxyflavone], the solubility result in series [2] is “highly insoluble in water”.
